Test results from US7265129B2, “Anti-infective biaryl compounds” (priority 2002, dated 2007).

Key:
B. cereus ATCC 11778 = test: MIC, NCCLS broth microdilution, B. cereus; assay type: cell-based, Bacillus cereus
From the text: (§1) It vitro biological activity data were collected for a variety of microorganisms, including Bacillus cereus (ATCC 11778), Staphylococcus aureus (ATCC 33591; ATCC 27660, a methicillin resistant strain (MRSA); ATCC 13709, a methicillin sensitive strain (MSSA)), Enterococcus faecalis (ATCC 29212), and Streptococcus pneumoniae (ATCC 49619). Additionally, antifungal activity data were collected for Candida albicans (ATCC 38247).
(§2) Compounds according to this invention were screened for their in vitro activities against selected species of bacteria and fungi. The minimal inhibition concentration (MIC) of these compounds was determined using the National Committee for Clinical Laboratory Standards (NCCLS) broth microdilution assay in microtiter plates, as set forth in: (1) the guidelines of the National Committee for Clinical Laboratory Standards (NCCLS) Document M7-A4 (NCCLS, 1997); (2) the guidelines of the National Committee for Clinical Laboratory Standards (NCCLS) Document M11-A4 (NCCLS, 1997); and (3) the guidelines and reference method of the National Committee for Clinical Laboratory Standards (NCCLS) Document M27-T (NCCLS, 1995). For antifungal assays, the method recommended in Murray, P R., 1995 Manual of Clinical Microbiology (ASM Press, Washington, D.C.), was employed.

C. albicans ATCC 38247 = test: MIC, antifungal assay, C. albicans; assay type: cell-based, Candida albicans
From the text: as §1, §2

E. faecalis ATCC 29212 = test: MIC, NCCLS broth microdilution, E. faecalis; assay type: cell-based, Enterococcus faecalis
From the text: as §1, §2

S. aureus ATCC 13709 = test: MIC, NCCLS broth microdilution, S. aureus MSSA; assay type: cell-based, Staphylococcus aureus; settings: S. aureus ATCC 13709, methicillin sensitive strain (MSSA)
From the text: as §1, §2

S. aureus ATCC 27660 = test: MIC, NCCLS broth microdilution, S. aureus MRSA; assay type: cell-based, Staphylococcus aureus; settings: S. aureus ATCC 27660, methicillin resistant strain (MRSA)
From the text: as §1, §2

S. aureus ATCC 33591 = test: MIC, NCCLS broth microdilution, S. aureus ATCC 33591; assay type: cell-based, Staphylococcus aureus
From the text: as §1, §2

S. pneumoniae ATCC 49619 = test: MIC, NCCLS broth microdilution, S. pneumoniae; assay type: cell-based, Streptococcus pneumoniae
From the text: as §1, §2

SMILES | Minimum Inhibitory Concentration (MIC), organism A (B. cereus ATCC 11778) | Minimum Inhibitory Concentration (MIC), organism B (C. albicans ATCC 38247) | Minimum Inhibitory Concentration (MIC), organism C (E. faecalis ATCC 29212) | Minimum Inhibitory Concentration (MIC), organism D (S. aureus ATCC 13709) | Minimum Inhibitory Concentration (MIC), organism E (S. aureus ATCC 27660) | Minimum Inhibitory Concentration (MIC), organism F (S. aureus ATCC 33591) | Minimum Inhibitory Concentration (MIC), organism G (S. pneumoniae ATCC 49619)
Cn1cc(NC(=O)c2cc(NC(=O)c3ccc(Cl)cc3F)cn2CCCN2CCC(O)CC2)cc1-c1nc2cccnc2[nH]1 [Compound A-42] | +++ (MIC ≦ 4 μg/mL) | + (12 ≦ MIC ≦ 32 μg/mL) | +++ (MIC ≦ 4 μg/mL) | +++ (MIC ≦ 4 μg/mL) | +++ (MIC ≦ 4 μg/mL) | +++ (MIC ≦ 4 μg/mL) | +++ (MIC ≦ 4 μg/mL)
Cn1cc(NC(=O)c2cc(NC(=O)c3sccc3Cl)cn2CCCN2CCC(O)CC2)cc1-c1nc2ccccc2[nH]1 [Compound A-53] | +++ (MIC ≦ 4 μg/mL) | + (12 ≦ MIC ≦ 32 μg/mL) | ++ (4 < MIC < 12 μg/mL) | +++ (MIC ≦ 4 μg/mL) | +++ (MIC ≦ 4 μg/mL) | +++ (MIC ≦ 4 μg/mL) | +++ (MIC ≦ 4 μg/mL)
CN(C)CCCn1cc(NC(=O)c2ccc(F)cc2F)cc1C(=O)Nc1cc(-c2nc3ncncc3[nH]2)n(C)c1 [Compound A-19] | + (12 ≦ MIC ≦ 32 μg/mL) | >32 µg/mL | ++ (4 < MIC < 12 μg/mL) | + (12 ≦ MIC ≦ 32 μg/mL) | + (12 ≦ MIC ≦ 32 μg/mL) | + (12 ≦ MIC ≦ 32 μg/mL) | +++ (MIC ≦ 4 μg/mL)
CC1CCN(CCCn2cc(NC(=O)c3sccc3Cl)cc2C(=O)Nc2cc(-c3nc4ccccc4[nH]3)n(C)c2)CC1 [Compound A-52] | +++ (MIC ≦ 4 μg/mL) | + (12 ≦ MIC ≦ 32 μg/mL) | +++ (MIC ≦ 4 μg/mL) | +++ (MIC ≦ 4 μg/mL) | +++ (MIC ≦ 4 μg/mL) | +++ (MIC ≦ 4 μg/mL) | +++ (MIC ≦ 4 μg/mL)
Cn1cc(NC(=O)c2cc(NC(=O)c3ccc(Cl)cc3F)cn2CCCN2CCOCC2)cc1-c1nc2ccccc2[nH]1 [Compound A-37] | +++ (MIC ≦ 4 μg/mL) | >32 µg/mL | +++ (MIC ≦ 4 μg/mL) | +++ (MIC ≦ 4 μg/mL) | +++ (MIC ≦ 4 μg/mL) | +++ (MIC ≦ 4 μg/mL) | +++ (MIC ≦ 4 μg/mL)
Cn1cc(NC(=O)c2cc(NC(=O)c3ccc(Cl)cc3F)cn2CCCN2CCOCC2)cc1-c1nc2cccnc2[nH]1 [Compound A-40] | +++ (MIC ≦ 4 μg/mL) | >32 µg/mL | +++ (MIC ≦ 4 μg/mL) | +++ (MIC ≦ 4 μg/mL) | +++ (MIC ≦ 4 μg/mL) | +++ (MIC ≦ 4 μg/mL) | +++ (MIC ≦ 4 μg/mL)
Cn1cc(NC(=O)c2cc(NC(=O)c3sc4ccccc4c3Cl)cn2CCCN2CCOCC2)cc1-c1nc2ccccc2[nH]1 [Compound A-26] | +++ (MIC ≦ 4 μg/mL) | >32 µg/mL | +++ (MIC ≦ 4 μg/mL) | +++ (MIC ≦ 4 μg/mL) | +++ (MIC ≦ 4 μg/mL) | +++ (MIC ≦ 4 μg/mL) | +++ (MIC ≦ 4 μg/mL)
Cc1cccc2nc(-c3cc(NC(=O)c4cc(NC(=O)c5cc6ccccc6cn5)cn4C)cn3C)[nH]c12 [Compound A-3] | >32 µg/mL | >32 µg/mL | >32 µg/mL | >32 µg/mL | >32 µg/mL | >32 µg/mL | >32 µg/mL
Cn1cc(NC(=O)c2cc(NC(=O)c3ccc(Cl)cc3F)cn2CCCN2CCC(F)(F)CC2)cc1-c1nc2ccccc2[nH]1 [Compound A-35] | +++ (MIC ≦ 4 μg/mL) | >32 µg/mL | +++ (MIC ≦ 4 μg/mL) | +++ (MIC ≦ 4 μg/mL) | +++ (MIC ≦ 4 μg/mL) | +++ (MIC ≦ 4 μg/mL) | +++ (MIC ≦ 4 μg/mL)
COc1cc(Cl)ccc1C(=O)Nc1cc(C(=O)Nc2cc(-c3nc4ccccc4[nH]3)n(C)c2)n(CCCN(C)C)c1 [Compound A-21] | +++ (MIC ≦ 4 μg/mL) | + (12 ≦ MIC ≦ 32 μg/mL) | +++ (MIC ≦ 4 μg/mL) | ++ (4 < MIC < 12 μg/mL) | +++ (MIC ≦ 4 μg/mL) |  | +++ (MIC ≦ 4 μg/mL)
Cn1cc(NC(=O)c2cc(NC(=O)c3sccc3Cl)cn2CCCN(CCO)CCO)cc1-c1nc2ccccc2[nH]1 [Compound A-55] | + (12 ≦ MIC ≦ 32 μg/mL) | >32 µg/mL | + (12 ≦ MIC ≦ 32 μg/mL) | + (12 ≦ MIC ≦ 32 μg/mL) | ++ (4 < MIC < 12 μg/mL) | ++ (4 < MIC < 12 μg/mL) | ++ (4 < MIC < 12 μg/mL)
CN(C)CCCn1cc(NC(=O)c2ccc(F)cc2F)cc1C(=O)Nc1cc(-c2nc3ncccc3[nH]2)n(C)c1 [Compound A-17] | +++ (MIC ≦ 4 μg/mL) | >32 µg/mL | +++ (MIC ≦ 4 μg/mL) | +++ (MIC ≦ 4 μg/mL) | +++ (MIC ≦ 4 μg/mL) | +++ (MIC ≦ 4 μg/mL) | +++ (MIC ≦ 4 μg/mL)
COc1cc(F)ccc1C(=O)Nc1cc(C(=O)Nc2cc(-c3nc4ccccc4[nH]3)n(C)c2)n(CCCN(C)C)c1 [Compound A-20] | +++ (MIC ≦ 4 μg/mL) | + (12 ≦ MIC ≦ 32 μg/mL) | +++ (MIC ≦ 4 μg/mL) | +++ (MIC ≦ 4 μg/mL) | +++ (MIC ≦ 4 μg/mL) |  | +++ (MIC ≦ 4 μg/mL)
CN(C)CCCn1cc(NC(=O)c2sc3ccccc3c2Cl)cc1C(=O)Nc1cc(-c2nc3ccccc3[nH]2)n(C)c1 [Compound A-22] | +++ (MIC ≦ 4 μg/mL) | + (12 ≦ MIC ≦ 32 μg/mL) | ++ (4 < MIC < 12 μg/mL) | ++ (4 < MIC < 12 μg/mL) | ++ (4 < MIC < 12 μg/mL) |  | ++ (4 < MIC < 12 μg/mL)
